Reference: ChEMBL document CHEMBL2331525, “Nudibaccatumone, a trimer comprising a phenylpropanoid and two sesquiterpene moieties from Piper nudibaccatum” (J Nat Prod, 2013)
Calls of active or inactive are those of the source. The calls are words filed in the database; no cut-off is given here.

Key:
[1] = tested on: Escherichia coli; test: Antimicrobial activity against Escherichia coli at 100 uM by microdilution method; assay type: functional, organism-based
[2] = tested on: A549; test: Cytotoxicity against human A549 cells at 100 uM by SRB assay; assay type: functional, cell-based
[3] = tested on: Staphylococcus aureus; test: Antimicrobial activity against Staphylococcus aureus at 100 uM by microdilution method; assay type: functional, organism-based
[4] = tested on: Candida albicans; test: Antimicrobial activity against Candida albicans at 100 uM by microdilution method; assay type: functional, organism-based
[5] = tested on: K562; test: Cytotoxicity against human K562 cells at 100 uM by MTT assay; assay type: functional, cell-based
[6] = tested on: K562; test: Cytotoxicity against human K562 cells by MTT assay; assay type: functional, cell-based
[7] = tested on: A549; test: Cytotoxicity against human A549 cells by SRB assay; assay type: functional, cell-based
[8] = tested on: Staphylococcus aureus; test: Antimicrobial activity against Staphylococcus aureus by microdilution method; assay type: functional, organism-based
[9] = tested on: Escherichia coli; test: Antimicrobial activity against Escherichia coli by microdilution method; assay type: functional, organism-based
[10] = tested on: Candida albicans; test: Antimicrobial activity against Candida albicans by microdilution method; assay type: functional, organism-based

With `C/C1=C\CC[C@]2(C)[C@@H]3C(=O)C(=O)[C@@H](C=C3/C=C/C[C@@]3(C)CC[C@H]4C3=C[C@H](C(C)(C)O)CC[C@H]4C)[C@H]2[C@H]2[C@H](CC1)C2(C)C` the Activity [1] was “inactive”, the Activity [2] was “inactive” and the Activity [3] was “inactive”. For the same molecule, the Activity [4] was “inactive” and the Activity [5] was “inactive”.

`COc1cccc2c1C(=O)c1c(O)c3c(c(O)c1C2=O)C[C@@](O)(C(=O)CO)C[C@@H]3O[C@H]1C[C@H](N)[C@H](O)[C@H](C)O1` [DOXORUBICIN] showed an IC50 [6] of 280 nM and an IC50 [7] of 49 nM.

GENTAMICIN showed an MIC [8] of 0.05 µg/mL and an MIC [9] of 1.2 µg/mL.

For NYSTATIN, the MIC [10] was 1 µg/mL.
